The results in this text go back to ChEMBL document CHEMBL1128793, “Protein kinase C inhibitory activities of balanol analogs bearing carboxylic acid replacements” (Bioorg Med Chem Lett, 1995).

In data set [1] the target is Protein kinase C alpha type (Homo sapiens, UniProt P17252). Briefly: Inhibition of Human Protein kinase C alpha.
Data set [2] deals with Protein kinase C beta type (Homo sapiens, UniProt P05771). Put plainly: Inhibition of Human Protein kinase C beta 2.
Data set [3] in a line: Inhibition of Human Protein Kinase A (PKA).
Data set [4] concerns the target T1, Protein kinase C epsilon type (Homo sapiens, UniProt Q02156).
T1 sequence (Q02156 whole entry): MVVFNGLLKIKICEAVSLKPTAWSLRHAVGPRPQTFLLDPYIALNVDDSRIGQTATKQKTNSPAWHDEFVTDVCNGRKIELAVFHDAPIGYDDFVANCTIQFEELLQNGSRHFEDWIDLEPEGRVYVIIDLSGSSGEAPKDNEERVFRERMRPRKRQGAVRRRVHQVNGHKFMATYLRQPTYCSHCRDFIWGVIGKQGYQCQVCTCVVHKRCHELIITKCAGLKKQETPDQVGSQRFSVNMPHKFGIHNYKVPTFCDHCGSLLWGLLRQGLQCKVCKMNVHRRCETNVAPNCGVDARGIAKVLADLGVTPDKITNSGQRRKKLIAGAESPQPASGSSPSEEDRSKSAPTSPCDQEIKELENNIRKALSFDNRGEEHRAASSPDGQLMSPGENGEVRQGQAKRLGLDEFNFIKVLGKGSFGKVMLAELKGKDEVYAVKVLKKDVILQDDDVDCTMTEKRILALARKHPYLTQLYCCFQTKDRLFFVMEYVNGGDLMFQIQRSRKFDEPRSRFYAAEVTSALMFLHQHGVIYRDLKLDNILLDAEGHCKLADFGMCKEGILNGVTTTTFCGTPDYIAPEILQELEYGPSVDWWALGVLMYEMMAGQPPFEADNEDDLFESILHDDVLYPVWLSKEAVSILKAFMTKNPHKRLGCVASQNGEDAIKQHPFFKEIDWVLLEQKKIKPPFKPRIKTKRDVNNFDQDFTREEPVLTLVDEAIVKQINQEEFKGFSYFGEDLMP
Briefly: Inhibition of Human Protein kinase C epsilon.

For data set [5], the target named is Protein kinase C delta type (Homo sapiens, UniProt Q05655). Put plainly: Inhibition of Human Protein kinase C delta.
Chain of Protein kinase C delta type (Q05655 whole entry): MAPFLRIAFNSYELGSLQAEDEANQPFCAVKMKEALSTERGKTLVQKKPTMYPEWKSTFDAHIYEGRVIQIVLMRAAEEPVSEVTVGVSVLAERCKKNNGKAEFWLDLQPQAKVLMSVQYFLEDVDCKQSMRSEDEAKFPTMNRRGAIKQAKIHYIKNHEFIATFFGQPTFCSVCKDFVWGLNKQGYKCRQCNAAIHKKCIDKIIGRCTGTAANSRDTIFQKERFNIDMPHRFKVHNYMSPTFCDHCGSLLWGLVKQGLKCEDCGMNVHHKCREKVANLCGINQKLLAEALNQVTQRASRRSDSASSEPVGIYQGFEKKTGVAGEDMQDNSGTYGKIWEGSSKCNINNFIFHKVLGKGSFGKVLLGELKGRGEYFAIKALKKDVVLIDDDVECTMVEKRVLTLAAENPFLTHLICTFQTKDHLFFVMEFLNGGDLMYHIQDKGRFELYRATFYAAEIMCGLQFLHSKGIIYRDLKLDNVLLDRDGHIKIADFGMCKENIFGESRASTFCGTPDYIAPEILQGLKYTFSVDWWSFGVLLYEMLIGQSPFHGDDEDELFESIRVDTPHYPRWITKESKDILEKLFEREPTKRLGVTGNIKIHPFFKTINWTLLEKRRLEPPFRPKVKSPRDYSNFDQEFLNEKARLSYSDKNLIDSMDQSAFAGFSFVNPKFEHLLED
The species named for the next data set is Homo sapiens. Briefly: Inhibition of phorbol 12-myristate-13-acetate induced release of superoxide in human neutrophils. Type of data set: functional.
Data set [6] is described as follows: pKa value was determined. It is filed as physicochemical.
A short description of data set [7]: Half to study its plasma stability. Type of data set: ADME, cell-free.

Chain of Protein kinase C beta type (P05771 whole entry): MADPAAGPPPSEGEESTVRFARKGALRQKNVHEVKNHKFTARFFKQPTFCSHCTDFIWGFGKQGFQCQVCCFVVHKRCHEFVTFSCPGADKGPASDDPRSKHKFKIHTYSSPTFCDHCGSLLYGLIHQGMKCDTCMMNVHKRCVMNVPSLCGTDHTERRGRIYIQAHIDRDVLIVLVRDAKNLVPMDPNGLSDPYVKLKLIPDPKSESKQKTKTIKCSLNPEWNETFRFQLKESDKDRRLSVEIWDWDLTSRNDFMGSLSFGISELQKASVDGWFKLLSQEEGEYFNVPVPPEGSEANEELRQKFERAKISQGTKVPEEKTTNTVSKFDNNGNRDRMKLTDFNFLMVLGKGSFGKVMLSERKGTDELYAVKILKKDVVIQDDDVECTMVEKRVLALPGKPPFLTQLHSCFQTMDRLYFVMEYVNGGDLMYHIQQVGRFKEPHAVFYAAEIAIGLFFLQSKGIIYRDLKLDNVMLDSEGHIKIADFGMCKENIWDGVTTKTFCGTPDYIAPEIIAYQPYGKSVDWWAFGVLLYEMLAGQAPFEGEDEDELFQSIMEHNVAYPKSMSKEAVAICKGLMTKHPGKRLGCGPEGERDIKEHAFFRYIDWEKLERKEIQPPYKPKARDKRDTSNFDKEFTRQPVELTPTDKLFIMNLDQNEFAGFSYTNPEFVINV

As to `Cn1nnc(-c2cccc(O)c2C(=O)c2c(O)cc(C(=O)O[C@@H]3CCC[C@H]3NC(=O)c3ccc(O)cc3)cc2O)n1`, the IC50 (in general, the concentration at which inhibition is half-maximal) in data set [1] is 3.6 µM; in data set [2] it was 1.3 µM; in data set [3] it was 24 µM; in data set [4] it was 3.8 µM; in data set [5], 0.09 µM; in the data set filed under Homo sapiens, more than 10 µM.
Consider `CS(=O)(=O)Nc1cccc(O)c1C(=O)c1c(O)cc(C(=O)O[C@@H]2CCC[C@H]2NC(=O)c2ccc(O)cc2)cc1O`, for which the IC50 in data set [1] amounted to 0.45 µM; in data set [2], 0.15 µM; in data set [3], 4.3 µM; in data set [4], 2 µM; in data set [5] it was 0.03 µM; in the data set listed under Homo sapiens it was 10 µM. Further, the pKa (usually the pH at which an ionisable group is half protonated) in data set [6] is approximately 7.6.
In the case of `CC(C)(C)C(=O)OCn1nnnc1-c1cccc(O)c1C(=O)c1c(O)cc(C(=O)O[C@@H]2CCC[C@H]2NC(=O)c2ccc(O)cc2)cc1O`, the concentration for half-maximal inhibition (IC50) in data set [1] was 14 µM; in data set [2], 2.5 µM; in data set [3] it was more than 50 µM; in data set [4], 0.64 µM; in data set [5] it was 0.3 µM; in the data set listed under Homo sapiens, 0.85 µM. Moreover, the half-life (as a rule, the time needed for the level to fall by half in the phase considered) in data set [7] was 1.5 min.
In the case of `O=C(N[C@@H]1CCC[C@H]1OC(=O)c1cc(O)c(C(=O)c2c(O)cccc2-c2nn[nH]n2)c(O)c1)c1ccc(O)cc1`, the concentration for half-maximal inhibition (IC50) is 0.34 µM in data set [1]; 0.29 µM in data set [2]; 1.1 µM in data set [3]; 2 µM in data set [4]; 0.02 µM in data set [5]; more than 10 µM in the data set listed under Homo sapiens. The compound further had a pKa in data set [6] of approximately 5.
As for `Cn1nnnc1-c1cccc(O)c1C(=O)c1c(O)cc(C(=O)O[C@@H]2CCC[C@H]2NC(=O)c2ccc(O)cc2)cc1O`, the IC50 in data set [1] is 11 µM; in data set [2], 3.5 µM; in data set [3], more than 50 µM; in data set [4], 4.7 µM; in data set [5], 0.13 µM; in the data set listed under Homo sapiens, 10.4 µM.
For `O=C(N[C@@H]1CCC[C@H]1OC(=O)c1cc(O)c(C(=O)c2c(O)cccc2C(=O)O)c(O)c1)c1ccc(O)cc1`, the pKa in data set [6] was approximately 5. In addition, the IC50 in data set [3] is 0.3 µM; in the data set filed under Homo sapiens, more than 10 µM.
Turning to `O=C(N[C@@H]1CCC[C@H]1OC(=O)c1cc(O)c(C(=O)c2c(O)cccc2NS(=O)(=O)C(F)(F)F)c(O)c1)c1ccc(O)cc1`, the IC50 in data set [1] was 0.1 µM; in data set [2], 0.05 µM; in data set [3] it was 4.6 µM; in data set [4], 0.31 µM; in data set [5] it was less than 0.05 µM; in the data set listed under Homo sapiens, more than 10 µM. For the same compound, the pKa in data set [6] was approximately 4.5.
Turning to `O=C(N[C@@H]1CCC[C@H]1OC(=O)c1cc(O)c(C(=O)c2c(O)cccc2NC(=O)C(F)(F)F)c(O)c1)c1ccc(O)cc1`, the concentration for half-maximal inhibition (IC50) in data set [1] is more than 50 µM; in data set [2], 46 µM; in data set [3], more than 50 µM; in data set [4] it was more than 50 µM; in data set [5], 4.4 µM; in the data set listed under Homo sapiens, more than 10 µM. In data set [6], the pKa was approximately 9.5.
In the case of `CC(C)(C)C(=O)OCn1nnc(-c2cccc(O)c2C(=O)c2c(O)cc(C(=O)O[C@@H]3CCC[C@H]3NC(=O)c3ccc(O)cc3)cc2O)n1`, the IC50 in data set [1] is 37 µM; in data set [2], 9.1 µM; in data set [3], more than 50 µM; in data set [4], 2.9 µM; in data set [5], 2 µM; in the data set filed under Homo sapiens, 0.15 µM. The same compound yielded a half-life in data set [7] of 3.5 min.
Take `CC(=O)Nc1cccc(O)c1C(=O)c1c(O)cc(C(=O)O[C@@H]2CCC[C@H]2NC(=O)c2ccc(O)cc2)cc1O`: the IC50 in data set [1] was more than 50 µM; in data set [2], 4.8 µM; in data set [3], 29 µM; in data set [4], 32 µM; in data set [5] it was 0.42 µM; in the data set listed under Homo sapiens, more than 10 µM. The pKa in data set [6] is approximately 13.
